Test results as given in patent publication EP4603105A1, “PHARMACEUTICAL COMPOSITION CONTAINING CYCLIC COMPOUND HAVING SELECTIVE KRAS INHIBITORY EFFECT AGAINST HRAS AND NRAS” (CHUGAI SEIYAKU KABUSHIKI KAISHA, priority 2022, dated 2024).

Tests used:
[1] = target: GDP-bound KRAS wild-type protein (Homo sapiens, UniProt P01116); test: Binding to KRAS by surface plasmon resonance (SPR), dissociation constant KD; conditions: Single Cycle Kinetics
In short: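 Captured GDP-RAS (~100–300 RU) was exposed to increasing compound concentrations, 75 s per step, in running buffer with 10 µM GDP, 10 mM MgCl2 and 4% DMSO at pH 7.4.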

[2] = target: GDP-bound NRAS wild-type protein (Homo sapiens, UniProt P01111); test: Binding to NRAS by surface plasmon resonance (SPR), KD and KD ratio to KRAS; conditions: ratio of KD for GDP-bound NRAS wild-type protein to KD for KRAS
In short: (§1)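 GDP-bound biotin-Avi RAS captured at ~100–300 RU, 30°C, pH 7.4 HBS containing 10 µM GDP, 10 mM MgCl2, 1 mM DTT, 0.01% Tween 20 and 4% DMSO. KD by 1:1 fitting.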

HRAS wild-type protein = HRAS wild-type protein (Homo sapiens, UniProt P01112); test: Binding to HRAS by surface plasmon resonance (SPR), KD and KD ratio to KRAS; conditions: ratio of KD for HRAS wild-type protein to KD for KRAS
In short: as §1

[3] = tested on: human lung cancer strain NCI-H441; test: NCI-H441 cell proliferation inhibitory activity (CellTiter-Glo, 4 days); assay type: cell-based; conditions: NCI-H441 cells, 4 days, read-out: NCl-H441 IC50
In short: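 Readout: […] after the ATP-based reagent. Compound: serial dilutions in dimethyl sulfoxide.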

Chain of GDP-bound KRAS wild-type protein (P01116 1-188 isoform P01116-2): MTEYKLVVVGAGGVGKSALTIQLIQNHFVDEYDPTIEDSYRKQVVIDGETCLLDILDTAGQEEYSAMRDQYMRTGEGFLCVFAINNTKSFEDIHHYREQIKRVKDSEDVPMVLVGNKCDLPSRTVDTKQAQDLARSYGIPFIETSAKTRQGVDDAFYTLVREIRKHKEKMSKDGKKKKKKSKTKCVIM
Chain of GDP-bound NRAS wild-type protein (P01111 whole entry): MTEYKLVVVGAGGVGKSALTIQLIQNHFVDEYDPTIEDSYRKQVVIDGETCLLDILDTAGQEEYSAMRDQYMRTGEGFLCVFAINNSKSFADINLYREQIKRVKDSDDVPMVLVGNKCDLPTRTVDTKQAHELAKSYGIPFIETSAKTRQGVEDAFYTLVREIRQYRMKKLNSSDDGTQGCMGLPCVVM
Chain of HRAS wild-type protein (P01112 whole entry): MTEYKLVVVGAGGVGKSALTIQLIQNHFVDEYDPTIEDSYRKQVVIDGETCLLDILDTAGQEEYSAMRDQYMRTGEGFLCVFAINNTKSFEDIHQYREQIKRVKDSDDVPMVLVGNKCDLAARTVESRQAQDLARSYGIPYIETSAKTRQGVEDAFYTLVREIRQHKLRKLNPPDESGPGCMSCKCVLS

Compound | Kd [1] | IC50 [3] | NRAS /KRAS [2] | HRAS /KRAS (HRAS wild-type protein)
C=CC[C@H]1C(=O)N(C)[C@H](C(=O)N(C)C)CC(=O)N(C)[C@@H](CC(C)C)C(=O)N[C@@H]([C@@H](C)CC)C(=O)N(C)CC(=O)N(C)[C@H]2C/C=C\CCN(C2=O)[C@@H](Cc2ccc(C)cc2)C(=O)N(C)CC(=O)N[C@@H](CCc2cc(F)c(C(F)(F)F)c(F)c2)C(=O)N2C[C@H](OCC)C[C@H]2C(=O)N(C)C2(CCC2)C(=O)N1C [PP3348] | 1.4 nM | 25.4 nM | A (a compound having 10 or more and less than 20 is denoted as A) | A (a compound having 10 or more and less than 20 is denoted as A)
C=C(C)C[C@H]1C(=O)N(C)[C@H](C(=O)N(C)C)CC(=O)N(C)[C@@H](CC(C)C)C(=O)N[C@@H]([C@@H](C)CC)C(=O)N(C)CC(=O)N(C)[C@H]2C/C=C\CCN(C2=O)[C@@H](Cc2ccc(C)cc2)C(=O)N(C)CC(=O)N[C@@H](CCc2cc(F)c(C(F)(F)F)c(F)c2)C(=O)N2C[C@H](OCC)C[C@H]2C(=O)N(C)C2(CCC2)C(=O)N1C [PP3349] | 1.7 nM | 15.7 nM | A (a compound having 10 or more and less than 20 is denoted as A) | A (a compound having 10 or more and less than 20 is denoted as A)
C=C(C)C[C@H]1C(=O)N(C)[C@H](C(=O)N(C)C)CC(=O)N(C)[C@@H](CC(C)C)C(=O)N[C@@H]([C@@H](C)CC)C(=O)N2CCC[C@H]2C(=O)N(C)[C@H]2C/C=C\CCN(C2=O)[C@@H](Cc2ccc(C)cc2)C(=O)N(C)CC(=O)N[C@@H](CCc2cc(F)c(C(F)(F)F)c(F)c2)C(=O)N2C[C@H](OCC)C[C@H]2C(=O)N(C)C2(CCC2)C(=O)N1C [PP3351] | 4.2 nM | 34.7 nM | A (a compound having 10 or more and less than 20 is denoted as A) | A (a compound having 10 or more and less than 20 is denoted as A)
CCCN(C)C(=O)[C@@H]1CC(=O)N(C)[C@@H](CC(C)C)C(=O)N[C@@H]([C@@H](C)CC)C(=O)N(C)CC(=O)N(C)[C@H]2C/C=C\CCN(C2=O)[C@@H](Cc2ccc(C(F)(F)F)cc2)C(=O)N(C)CC(=O)N[C@@H](CCc2cc(F)c(C(F)(F)F)c(F)c2)C(=O)N2C[C@H](OCC)C[C@H]2C(=O)N[C@]2(C[C@@H](OC)C2)C(=O)N(C)[C@@H](C2CCCC2)C(=O)N1C [PP3352] | 0.28 nM | 12.4 nM | A (a compound having 10 or more and less than 20 is denoted as A) | B (a compound having 3 or more and less than 10 is denoted as B)
CCCN(C)C(=O)[C@@H]1CC(=O)N(C)[C@@H](CC(C)C)C(=O)N[C@@H]([C@@H](C)CC)C(=O)N(C)CC(=O)N(C)[C@H]2C/C=C\CCN(C2=O)[C@@H](Cc2ccc(C(F)(F)F)cc2)C(=O)N(C)CC(=O)N[C@@H](CCc2cc(F)c(C(F)(F)F)c(F)c2)C(=O)N2C[C@H](OCC)C[C@H]2C(=O)N[C@]2(C[C@H](OC)C2)C(=O)N(C)[C@@H](C2CCCC2)C(=O)N1C [PP3353] | 0.17 nM | 14.1 nM | A (a compound having 10 or more and less than 20 is denoted as A) | A (a compound having 10 or more and less than 20 is denoted as A)
CCC[C@H]1C(=O)N[C@@H]([C@@H](C)CC)C(=O)N(C)CC(=O)N(C)[C@H]2C/C=C\CCN(C2=O)[C@@H](Cc2ccc(C(F)(F)F)cc2)C(=O)N(C)CC(=O)N[C@@H](CCc2cc(F)c(C(F)(F)F)c(F)c2)C(=O)N2CC3(CC3)C[C@H]2C(=O)N(C)C2(CCC2)C(=O)N(C)[C@@H](C(CC)CC)C(=O)N(C)[C@H](C(=O)N(C)C)CC(=O)N1C [PP3357] | 0.82 nM | 8.4 nM | A (a compound having 10 or more and less than 20 is denoted as A) | A (a compound having 10 or more and less than 20 is denoted as A)
CCC[C@H]1C(=O)N[C@@H]([C@@H](C)CC)C(=O)N(C)CC(=O)N(C)[C@H]2C/C=C\CCN(C2=O)[C@@H](Cc2ccc(C(F)(F)F)cc2)C(=O)N(C)CC(=O)N[C@@H](CCc2cc(F)c(C(F)(F)F)c(F)c2)C(=O)N2CC3(CC3)C[C@H]2C(=O)N(C)C2(CCC2)C(=O)N(C)[C@@H]([C@@H](C)CC)C(=O)N(C)[C@H](C(=O)N(C)C)CC(=O)N1C [PP3358] | 0.11 nM | 3.1 nM | A (a compound having 10 or more and less than 20 is denoted as A) | A (a compound having 10 or more and less than 20 is denoted as A)
CCC[C@H]1C(=O)N[C@@H]([C@@H](C)CC)C(=O)N(C)CC(=O)N(C)[C@H]2C/C=C\CCN(C2=O)[C@@H](Cc2ccc(C(F)(F)F)cc2)C(=O)N(C)CC(=O)N[C@@H](CCc2ccc(C(F)(F)F)c(OC)c2)C(=O)N2CC3(CC3)C[C@H]2C(=O)N(C)C2(CCC2)C(=O)N(C)[C@@H](C(CC)CC)C(=O)N(C)[C@H](C(=O)N(C)C)CC(=O)N1C [PP3361] | 1.5 nM | 4.7 nM | A (a compound having 10 or more and less than 20 is denoted as A) | A (a compound having 10 or more and less than 20 is denoted as A)

Now from value to compound, other results behind:

Kd [1] | IC50 [3] | Compound | NRAS /KRAS [2] | HRAS /KRAS (HRAS wild-type protein)
0.86 nM | 58.3 nM | C=C(C)C[C@H]1C(=O)N(C)[C@H](C(=O)N(C)C)CC(=O)N(C)[C@@H](CC(C)C)C(=O)N[C@@H]([C@@H](C)CC)C(=O)N(C)CC(=O)N(C)[C@H]2C/C=C\CCN(C2=O)[C@@H](Cc2ccc(C)cc2)C(=O)N(C)CC(=O)N[C@@H](CCc2ccc(C(F)(F)F)c(OC)c2)C(=O)N2C[C@H](OCC)C[C@H]2C(=O)N(C)C2(CCC2)C(=O)N1C [PP3345] | A (a compound having 10 or more and less than 20 is denoted as A) | A (a compound having 10 or more and less than 20 is denoted as A)
1.4 nM | 58.5 nM | CCCN(C)C(=O)[C@@H]1CC(=O)N(C)[C@@H](CC(C)C)C(=O)N[C@@H]([C@@H](C)CC)C(=O)N2CCC[C@H]2C(=O)N(C)[C@H]2C/C=C\CCN(C2=O)[C@@H](Cc2ccc(C(F)(F)F)cc2)C(=O)N(C)CC(=O)N[C@@H](CCc2cc(F)c(C(F)(F)F)c(F)c2)C(=O)N2C[C@H](OCC)C[C@H]2C(=O)N[C@]2(C[C@@H](OC)C2)C(=O)N(C)[C@@H](C2CCCC2)C(=O)N1C [PP3354] | A (a compound having 10 or more and less than 20 is denoted as A) | A (a compound having 10 or more and less than 20 is denoted as A)
1.1 nM | 45.5 nM | CCCN(C)C(=O)[C@@H]1CC(=O)N(C)[C@@H](CC(C)C)C(=O)N[C@@H]([C@@H](C)CC)C(=O)N2CCC[C@H]2C(=O)N(C)[C@H]2C/C=C\CCN(C2=O)[C@@H](Cc2ccc(C(F)(F)F)cc2)C(=O)N(C)CC(=O)N[C@@H](CCc2cc(F)c(C(F)(F)F)c(F)c2)C(=O)N2C[C@H](OCC)C[C@H]2C(=O)N[C@]2(C[C@H](OC)C2)C(=O)N(C)[C@@H](C2CCCC2)C(=O)N1C [PP3355] | A (a compound having 10 or more and less than 20 is denoted as A) | A (a compound having 10 or more and less than 20 is denoted as A)
0.84 nM | 34.3 nM | CCO[C@@H]1C[C@H]2C(=O)OC3(CCC3)C(=O)N(C)[C@@H](C3CCCC3)C(=O)N(C)[C@H](C(=O)N(C)C)CC(=O)N(C)[C@@H](CC(C)C)C(=O)N[C@@H]([C@@H](C)CC)C(=O)N3CCC[C@H]3C(=O)N(C)[C@H]3C/C=C\CCN(C3=O)[C@@H](Cc3ccc(C(F)(F)F)cc3)C(=O)N(C)CC(=O)N[C@@H](CCc3ccc(C(F)(F)F)c(OC)c3)C(=O)N2C1 [PP3362] | A (a compound having 10 or more and less than 20 is denoted as A) | A (a compound having 10 or more and less than 20 is denoted as A)
